Consider 8 compounds from ChEMBL document CHEMBL1201862, “PubChem BioAssay data set” (2004).

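Exposure lasted 48 hours, with cells grown in 96-well plates and compounds tested at five concentrations. The concentration for 50% growth inhibition is given as GI50.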 Calls of active or inactive are those of the source. Rule as the data show it: active = GI50 up to about 1.1 µM and inactive = higher.

Some test systems named below: 786-0; A549; K562; MCF7; MDA-MB-231; MDA-N; NCI-H522; OVCAR-3; OVCAR-4; RPMI-8226; RXF 393; SF-539; SK-MEL-2; SK-OV-3; SNB-19; SNB-75; T47D; TK-10; HCC 2998; Malme-3M.
Holding throughout (assay): NCI tumour cell line growth inhibition, 48 h

Turning to `CCOP(=O)(/C=C\n1ccc(=O)[nH]c1=O)OCC`, the GI50 in the test with 786-0, in the test with A549, in the test on K562, in the test with MCF7, in the test with MDA-MB-231 and in the test on MDA-N was > 100 µM (inactive) throughout. Further, the GI50 with NCI-H522, in the test on OVCAR-3, with OVCAR-4, in the test on RPMI-8226, in the test with RXF 393 and in the test on SF-539 was > 100 µM (inactive) in each case. Moreover, the GI50 in the test on SK-MEL-2, in the test on SK-OV-3, with SNB-19, with SNB-75, in the test with T47D and with TK-10 was > 100 µM (inactive) each time.

`CCCCc1nc(C)oc1C(C)C`: the GI50 with 786-0, with A549, in the test with HCC 2998, in the test with K562, with MCF7 and in the test with MDA-MB-231 was > 100 µM (inactive) throughout. The GI50 in the test on MDA-N, with Malme-3M, with NCI-H522, in the test on OVCAR-3, in the test on OVCAR-4 and with RXF 393 was > 100 µM (inactive) each time. The GI50 in the test with SF-539, in the test with SK-OV-3, with SNB-75, in the test with T47D and with TK-10 was > 100 µM (inactive) throughout.

Turning to `C=C1CC(Cn2ccc(=O)[nH]c2=O)(c2ccc(OC)cc2)OC1=O` (stereo not given), the GI50 in the test on 786-0 is 11.7 µM (inactive); with A549 it was 24 µM (inactive); with HCC 2998 it was 13 µM (inactive); in the test with K562 it was 3.2 µM (inactive); with MCF7 it was 4.43 µM (inactive); in the test with MDA-MB-231, 16.6 µM (inactive). Besides, the GI50 was 12.7 µM (inactive) with MDA-N; 10.1 µM (inactive) in the test on Malme-3M; 1.94 µM (inactive) with NCI-H522; 19.3 µM (inactive) in the test on OVCAR-3; 16.8 µM (inactive) with OVCAR-4; 2.88 µM (inactive) with RPMI-8226. The GI50 in the test on SF-539 is 18.6 µM (inactive); with SK-MEL-2 it was 12.8 µM (inactive); in the test with SK-OV-3, 28.8 µM (inactive); in the test on SNB-19, > 68.4 µM (inactive); in the test with SNB-75 it was > 10 µM (inactive); in the test with T47D, 16.3 µM (inactive). In the test on TK-10, the GI50 was 10 µM (inactive).

As for `O=S(=O)(O)CCCC1S(=O)(=O)OCCOS1(=O)=O`, the GI50 in the test on 786-0, in the test on HCC 2998, with MCF7, in the test with MDA-MB-231, with MDA-N and with Malme-3M was > 100 µM (inactive) in each case. Moreover, the GI50 in the test with NCI-H522, in the test on OVCAR-3, in the test on OVCAR-4, in the test with RPMI-8226, in the test with RXF 393 and in the test with SF-539 was > 100 µM (inactive) each time. The GI50 with SK-OV-3 was > 100 µM (inactive); in the test on SNB-19, > 100 µM (inactive); in the test with SNB-75 it was 0.745 µM (active); in the test with T47D, > 100 µM (inactive); in the test on TK-10 it was > 100 µM (inactive).

Regarding `O=C1N/C(=N/N=C/c2cccs2)N/C1=C\c1ccco1`, the GI50 is 51.6 µM (inactive) in the test with 786-0; 33.7 µM (inactive) in the test with A549; 37.4 µM (inactive) in the test on K562; 30.3 µM (inactive) in the test with MCF7; > 100 µM (inactive) in the test with MDA-MB-231; 2.93 µM (inactive) in the test on MDA-N. Moreover, the GI50 in the test with Malme-3M is 38.6 µM (inactive); with NCI-H522, 7.98 µM (inactive); in the test on OVCAR-3 it was 22.5 µM (inactive); in the test with OVCAR-4 it was > 100 µM (inactive); in the test on RPMI-8226, 23.7 µM (inactive); in the test on RXF 393, 90.6 µM (inactive). The GI50 with SF-539 was 28.9 µM (inactive); in the test on SK-MEL-2, 7.29 µM (inactive); in the test on SK-OV-3, 21.9 µM (inactive); in the test on SNB-19, 81.5 µM (inactive); with SNB-75, 84.7 µM (inactive); in the test on T47D, > 100 µM (inactive). In the test on TK-10, the GI50 was > 100 µM (inactive).

Take `O=C1CCC2(O)C3Cc4ccc(Oc5nnnn5-c5ccccc5)c5c4C2(CCN3CC2CC2)C1O5` (stereo not given): the GI50 with 786-0 is 20 µM (inactive); with A549 it was > 100 µM (inactive); with K562 it was 22.2 µM (inactive); in the test on MCF7, 54 µM (inactive); in the test on MDA-MB-231, 58.6 µM (inactive); with MDA-N, 22 µM (inactive). Also, the GI50 in the test with Malme-3M was 17.8 µM (inactive); with NCI-H522, 23.3 µM (inactive); in the test on OVCAR-3, 46.7 µM (inactive); in the test with OVCAR-4, 79.6 µM (inactive); in the test with RPMI-8226, 28.9 µM (inactive); in the test on RXF 393 it was 39.1 µM (inactive). For the same compound, the GI50 in the test with SK-MEL-2 is 22.1 µM (inactive); in the test on SK-OV-3 it was > 100 µM (inactive); in the test on SNB-19, 95.7 µM (inactive); in the test with SNB-75, > 100 µM (inactive); in the test on T47D it was 39.5 µM (inactive); in the test on TK-10 it was 62.5 µM (inactive).

`NC(=O)CC(N)c1nnn[nH]1` (stereo not given): the GI50 with 786-0, in the test on A549, in the test on K562, in the test with MCF7, with MDA-MB-231 and in the test on MDA-N was > 100 µM (inactive) each time. In addition, the GI50 in the test with Malme-3M, in the test on NCI-H522, with OVCAR-3, with OVCAR-4, in the test on RPMI-8226 and in the test with RXF 393 was > 100 µM (inactive) in each case. Further, the GI50 in the test with SF-539, in the test on SK-MEL-2, with SK-OV-3, with SNB-19, with SNB-75 and with T47D was > 100 µM (inactive) in each case. Also, the GI50 in the test on TK-10 is > 100 µM (inactive).

As for `CC[C@H]1C[C@@H](O)[C@@H]2[C@H](O)[C@H](O)CN2C1`, the GI50 in the test with 786-0, in the test on A549, in the test on HCC 2998, in the test on K562, in the test on MCF7 and with MDA-N was > 100 µM (inactive) in each case. Besides, the GI50 in the test on Malme-3M, with NCI-H522, in the test on OVCAR-3, in the test with OVCAR-4, with RPMI-8226 and in the test with SF-539 was > 100 µM (inactive) in each case. Besides, the GI50 with SK-MEL-2, with SK-OV-3, with SNB-19, in the test on SNB-75, with T47D and in the test with TK-10 was > 100 µM (inactive) in each case.
